Measurements reported in paper PMC4774911, “Biochemical Screening of Five Protein Kinases from Plasmodium falciparum against 14,000 Cell-Active Compounds” (PLoS ONE, 2016).
Several values for one entry are separate records, joined by “and”; a condition that tells them apart may be missing. Identical values can stand only once.

Assays:
Assay in all cases: biochemical
[1] = target: BRAF (Homo sapiens, UniProt P15056)
[2] = target: CSNK1D (Homo sapiens, UniProt P48730)
[3] = target: DYRK1A (Homo sapiens, UniProt Q13627)
[4] = target: EIF2AK4 (Homo sapiens, UniProt Q9P2K8)
[5] = target: MAP2K1 (Homo sapiens, UniProt Q02750)
[6] = target: MAP3K1 (Homo sapiens, UniProt Q13233)
[7] = target: T1, MAP4K2 (Homo sapiens, UniProt Q12851)
T1 sequence (Q12851 1-820): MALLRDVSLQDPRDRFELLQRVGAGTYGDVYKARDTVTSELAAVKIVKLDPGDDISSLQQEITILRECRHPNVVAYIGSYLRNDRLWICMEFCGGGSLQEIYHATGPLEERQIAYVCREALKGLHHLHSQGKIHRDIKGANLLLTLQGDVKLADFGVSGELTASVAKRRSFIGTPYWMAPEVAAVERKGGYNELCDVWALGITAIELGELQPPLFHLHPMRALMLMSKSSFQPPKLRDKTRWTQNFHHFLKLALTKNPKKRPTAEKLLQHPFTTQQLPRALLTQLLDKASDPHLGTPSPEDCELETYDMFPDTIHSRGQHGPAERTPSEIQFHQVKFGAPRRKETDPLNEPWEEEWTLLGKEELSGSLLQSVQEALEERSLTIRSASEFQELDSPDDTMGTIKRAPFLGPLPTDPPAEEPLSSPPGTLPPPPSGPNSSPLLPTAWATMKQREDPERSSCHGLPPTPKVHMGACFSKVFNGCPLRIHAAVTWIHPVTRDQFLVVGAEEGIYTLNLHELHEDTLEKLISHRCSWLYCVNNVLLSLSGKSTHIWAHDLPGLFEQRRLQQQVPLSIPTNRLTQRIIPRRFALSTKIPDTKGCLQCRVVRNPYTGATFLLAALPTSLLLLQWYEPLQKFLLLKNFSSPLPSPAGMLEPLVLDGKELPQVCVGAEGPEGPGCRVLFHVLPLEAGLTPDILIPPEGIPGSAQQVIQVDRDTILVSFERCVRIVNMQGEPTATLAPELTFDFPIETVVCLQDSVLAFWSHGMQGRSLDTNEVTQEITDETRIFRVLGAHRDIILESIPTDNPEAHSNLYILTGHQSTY

[8] = target: MAPK3 (Homo sapiens, UniProt P27361)
[9] = target: PRKCA (Homo sapiens, UniProt P17252)
[10] = target: PRKCD (Homo sapiens, UniProt Q05655)
[11] = target: T2, PRKD2 (Homo sapiens, UniProt Q9BZL6)
T2 sequence (Q9BZL6 1-878): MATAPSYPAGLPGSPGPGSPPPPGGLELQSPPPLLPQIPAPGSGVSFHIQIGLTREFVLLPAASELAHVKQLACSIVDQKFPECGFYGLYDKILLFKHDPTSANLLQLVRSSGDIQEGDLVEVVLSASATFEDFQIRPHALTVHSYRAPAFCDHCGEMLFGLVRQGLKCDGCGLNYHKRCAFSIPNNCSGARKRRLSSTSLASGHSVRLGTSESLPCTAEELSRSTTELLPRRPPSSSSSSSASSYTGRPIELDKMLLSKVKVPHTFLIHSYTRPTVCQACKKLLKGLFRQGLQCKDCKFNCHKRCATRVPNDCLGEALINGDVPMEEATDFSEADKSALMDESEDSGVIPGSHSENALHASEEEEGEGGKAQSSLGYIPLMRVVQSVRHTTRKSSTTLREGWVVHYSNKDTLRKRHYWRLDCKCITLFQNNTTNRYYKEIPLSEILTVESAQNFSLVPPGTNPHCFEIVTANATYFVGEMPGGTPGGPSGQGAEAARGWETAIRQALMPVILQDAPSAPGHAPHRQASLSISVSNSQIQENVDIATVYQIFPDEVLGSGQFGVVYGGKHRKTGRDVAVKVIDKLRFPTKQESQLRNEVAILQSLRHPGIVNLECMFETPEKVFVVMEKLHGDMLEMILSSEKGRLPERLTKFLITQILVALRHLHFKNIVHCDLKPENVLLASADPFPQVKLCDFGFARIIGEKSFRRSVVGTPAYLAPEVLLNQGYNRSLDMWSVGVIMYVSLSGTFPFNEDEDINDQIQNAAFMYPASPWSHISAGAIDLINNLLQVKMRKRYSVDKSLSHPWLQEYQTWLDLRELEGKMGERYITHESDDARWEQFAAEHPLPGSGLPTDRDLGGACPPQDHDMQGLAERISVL

[12] = target: T3, TBK1 (Homo sapiens, UniProt Q9UHD2)
T3 sequence (Q9UHD2 1-729): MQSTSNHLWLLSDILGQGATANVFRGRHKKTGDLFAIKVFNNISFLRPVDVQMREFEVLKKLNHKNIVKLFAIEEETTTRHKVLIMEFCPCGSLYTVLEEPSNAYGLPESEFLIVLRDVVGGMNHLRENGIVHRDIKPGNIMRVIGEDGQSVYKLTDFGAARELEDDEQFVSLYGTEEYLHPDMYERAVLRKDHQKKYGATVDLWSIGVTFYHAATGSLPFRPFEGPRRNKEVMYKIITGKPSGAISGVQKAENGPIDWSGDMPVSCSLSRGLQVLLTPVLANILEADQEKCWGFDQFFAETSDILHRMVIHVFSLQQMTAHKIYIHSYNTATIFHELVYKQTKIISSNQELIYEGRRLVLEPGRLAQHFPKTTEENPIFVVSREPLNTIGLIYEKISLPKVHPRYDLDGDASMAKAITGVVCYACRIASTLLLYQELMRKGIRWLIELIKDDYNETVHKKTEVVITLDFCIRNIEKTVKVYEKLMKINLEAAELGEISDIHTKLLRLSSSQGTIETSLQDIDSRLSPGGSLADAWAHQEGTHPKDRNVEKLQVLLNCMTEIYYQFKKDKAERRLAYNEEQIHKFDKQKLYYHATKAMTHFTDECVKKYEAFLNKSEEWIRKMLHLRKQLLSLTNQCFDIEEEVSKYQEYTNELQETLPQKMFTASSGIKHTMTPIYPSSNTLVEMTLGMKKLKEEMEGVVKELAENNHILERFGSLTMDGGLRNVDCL

Chain of MAPK3 (P27361 whole entry): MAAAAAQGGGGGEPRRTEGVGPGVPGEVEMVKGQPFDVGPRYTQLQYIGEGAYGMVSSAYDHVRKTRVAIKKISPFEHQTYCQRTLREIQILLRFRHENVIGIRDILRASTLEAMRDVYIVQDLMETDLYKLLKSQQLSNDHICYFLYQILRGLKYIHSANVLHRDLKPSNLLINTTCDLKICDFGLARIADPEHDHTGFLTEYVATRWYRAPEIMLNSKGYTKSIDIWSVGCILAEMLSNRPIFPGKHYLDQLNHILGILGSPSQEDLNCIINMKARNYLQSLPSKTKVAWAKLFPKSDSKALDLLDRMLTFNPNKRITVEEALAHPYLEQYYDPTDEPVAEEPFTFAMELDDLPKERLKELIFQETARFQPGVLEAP
Chain of EIF2AK4 (Q9P2K8 whole entry): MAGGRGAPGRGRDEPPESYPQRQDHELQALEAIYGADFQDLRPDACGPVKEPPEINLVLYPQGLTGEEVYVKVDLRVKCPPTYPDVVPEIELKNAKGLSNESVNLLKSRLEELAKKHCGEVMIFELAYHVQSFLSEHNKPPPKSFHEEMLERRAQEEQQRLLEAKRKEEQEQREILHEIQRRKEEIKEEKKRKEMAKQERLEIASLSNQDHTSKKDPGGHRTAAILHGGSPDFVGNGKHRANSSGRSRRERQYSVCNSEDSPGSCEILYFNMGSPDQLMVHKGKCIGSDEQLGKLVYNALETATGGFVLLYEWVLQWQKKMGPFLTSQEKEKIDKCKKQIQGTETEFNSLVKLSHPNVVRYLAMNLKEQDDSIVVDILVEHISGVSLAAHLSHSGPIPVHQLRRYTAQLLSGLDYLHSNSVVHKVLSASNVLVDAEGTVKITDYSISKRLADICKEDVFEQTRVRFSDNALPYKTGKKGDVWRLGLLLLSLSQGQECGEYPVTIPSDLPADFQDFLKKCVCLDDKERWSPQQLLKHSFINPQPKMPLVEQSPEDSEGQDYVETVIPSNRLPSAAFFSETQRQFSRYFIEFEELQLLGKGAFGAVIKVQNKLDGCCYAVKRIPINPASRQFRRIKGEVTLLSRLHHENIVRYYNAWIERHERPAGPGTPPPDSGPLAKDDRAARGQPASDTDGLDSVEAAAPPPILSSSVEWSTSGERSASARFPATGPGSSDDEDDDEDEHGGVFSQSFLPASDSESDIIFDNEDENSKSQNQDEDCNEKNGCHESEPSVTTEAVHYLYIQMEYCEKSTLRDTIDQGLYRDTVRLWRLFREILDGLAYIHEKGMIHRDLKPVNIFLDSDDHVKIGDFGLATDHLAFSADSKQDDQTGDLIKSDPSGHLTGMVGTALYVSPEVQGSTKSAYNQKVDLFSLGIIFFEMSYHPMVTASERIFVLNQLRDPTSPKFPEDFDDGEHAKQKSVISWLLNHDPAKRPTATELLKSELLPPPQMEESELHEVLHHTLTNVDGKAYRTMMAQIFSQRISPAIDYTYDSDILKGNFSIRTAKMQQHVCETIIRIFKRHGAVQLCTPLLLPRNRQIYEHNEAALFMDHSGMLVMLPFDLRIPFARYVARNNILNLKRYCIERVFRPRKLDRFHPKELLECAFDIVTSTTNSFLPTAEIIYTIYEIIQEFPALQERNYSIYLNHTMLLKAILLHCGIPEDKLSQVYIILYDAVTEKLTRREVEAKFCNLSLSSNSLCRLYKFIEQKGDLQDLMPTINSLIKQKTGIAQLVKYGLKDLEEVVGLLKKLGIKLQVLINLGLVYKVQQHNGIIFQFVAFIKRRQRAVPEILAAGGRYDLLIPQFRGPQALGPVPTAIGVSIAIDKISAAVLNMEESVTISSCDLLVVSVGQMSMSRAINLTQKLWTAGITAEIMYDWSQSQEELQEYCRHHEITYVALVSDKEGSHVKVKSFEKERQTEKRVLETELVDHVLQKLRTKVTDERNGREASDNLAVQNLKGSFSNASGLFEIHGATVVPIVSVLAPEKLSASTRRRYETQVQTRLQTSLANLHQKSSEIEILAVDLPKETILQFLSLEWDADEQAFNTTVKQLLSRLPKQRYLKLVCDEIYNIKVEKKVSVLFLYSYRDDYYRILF
Chain of PRKCD (Q05655 whole entry): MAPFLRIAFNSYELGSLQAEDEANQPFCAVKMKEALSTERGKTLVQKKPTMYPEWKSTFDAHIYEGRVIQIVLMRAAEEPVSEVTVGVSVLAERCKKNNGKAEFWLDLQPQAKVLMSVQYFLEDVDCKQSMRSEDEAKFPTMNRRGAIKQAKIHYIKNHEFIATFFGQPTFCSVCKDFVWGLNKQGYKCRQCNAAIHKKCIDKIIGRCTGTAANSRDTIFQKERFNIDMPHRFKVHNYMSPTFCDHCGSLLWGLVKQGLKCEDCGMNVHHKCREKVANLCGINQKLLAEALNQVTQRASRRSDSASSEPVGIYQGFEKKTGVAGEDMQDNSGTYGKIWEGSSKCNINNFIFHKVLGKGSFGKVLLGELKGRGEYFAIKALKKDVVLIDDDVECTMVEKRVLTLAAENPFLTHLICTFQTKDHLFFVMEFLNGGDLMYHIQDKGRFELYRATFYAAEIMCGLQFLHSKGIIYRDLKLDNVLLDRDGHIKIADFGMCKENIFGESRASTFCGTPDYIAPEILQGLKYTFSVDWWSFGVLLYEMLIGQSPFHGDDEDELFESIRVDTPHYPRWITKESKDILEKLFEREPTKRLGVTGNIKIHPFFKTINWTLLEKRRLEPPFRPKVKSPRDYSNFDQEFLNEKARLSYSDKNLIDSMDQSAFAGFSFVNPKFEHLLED
Chain of CSNK1D (P48730 whole entry): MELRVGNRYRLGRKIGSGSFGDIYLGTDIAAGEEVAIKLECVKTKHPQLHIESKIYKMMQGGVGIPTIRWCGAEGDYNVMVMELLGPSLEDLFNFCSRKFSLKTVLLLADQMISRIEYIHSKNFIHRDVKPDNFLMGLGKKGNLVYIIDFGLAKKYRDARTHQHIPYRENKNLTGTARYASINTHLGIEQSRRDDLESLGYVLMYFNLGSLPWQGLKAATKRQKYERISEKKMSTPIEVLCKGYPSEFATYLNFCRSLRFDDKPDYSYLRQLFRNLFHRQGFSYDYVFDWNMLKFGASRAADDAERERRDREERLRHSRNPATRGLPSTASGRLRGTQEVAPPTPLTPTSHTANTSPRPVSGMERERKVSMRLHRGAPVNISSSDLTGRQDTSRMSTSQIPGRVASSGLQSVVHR
Chain of BRAF (P15056 whole entry): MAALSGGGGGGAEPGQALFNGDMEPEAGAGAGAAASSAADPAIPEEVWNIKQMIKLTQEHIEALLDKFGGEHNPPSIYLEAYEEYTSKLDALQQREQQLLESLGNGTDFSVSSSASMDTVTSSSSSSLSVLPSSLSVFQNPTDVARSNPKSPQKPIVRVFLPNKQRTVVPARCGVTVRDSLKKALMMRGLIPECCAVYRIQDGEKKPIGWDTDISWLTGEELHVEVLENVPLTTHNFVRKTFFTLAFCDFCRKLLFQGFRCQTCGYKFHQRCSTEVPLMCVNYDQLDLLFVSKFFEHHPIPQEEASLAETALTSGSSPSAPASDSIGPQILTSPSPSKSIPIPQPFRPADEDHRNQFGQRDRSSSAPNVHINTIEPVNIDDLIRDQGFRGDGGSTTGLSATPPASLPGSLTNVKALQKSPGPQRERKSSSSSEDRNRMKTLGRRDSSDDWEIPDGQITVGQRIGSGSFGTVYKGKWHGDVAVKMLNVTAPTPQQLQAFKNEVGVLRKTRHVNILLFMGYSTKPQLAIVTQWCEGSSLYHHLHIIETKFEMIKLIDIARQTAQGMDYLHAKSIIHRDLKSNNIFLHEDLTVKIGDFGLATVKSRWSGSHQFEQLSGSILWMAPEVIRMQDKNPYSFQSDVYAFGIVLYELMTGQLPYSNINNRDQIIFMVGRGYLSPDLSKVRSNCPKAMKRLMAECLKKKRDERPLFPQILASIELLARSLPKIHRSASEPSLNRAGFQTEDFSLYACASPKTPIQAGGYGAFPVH
Chain of MAP2K1 (Q02750 whole entry): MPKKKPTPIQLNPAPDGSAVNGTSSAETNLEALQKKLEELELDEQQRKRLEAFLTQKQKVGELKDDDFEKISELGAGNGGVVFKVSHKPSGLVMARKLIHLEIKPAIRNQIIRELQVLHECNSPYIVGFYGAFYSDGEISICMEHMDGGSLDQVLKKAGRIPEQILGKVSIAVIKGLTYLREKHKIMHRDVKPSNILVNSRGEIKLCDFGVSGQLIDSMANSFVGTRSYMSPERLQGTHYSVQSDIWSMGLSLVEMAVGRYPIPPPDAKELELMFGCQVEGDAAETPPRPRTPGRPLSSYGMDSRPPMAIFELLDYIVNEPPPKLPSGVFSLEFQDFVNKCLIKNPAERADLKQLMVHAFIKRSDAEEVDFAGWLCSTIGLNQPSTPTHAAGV

SMILES	IC50 [1]	IC50 [2]	IC50 [3]	IC50 [4]	IC50 [5]	IC50 [6]	IC50 [7]	IC50 [8]	IC50 [9]	IC50 [10]	IC50 [11]	IC50 [12]
CN1CCN(c2ccc(Nc3ncc(C#N)c(Nc4ccccc4C(N)=O)n3)cc2)CC1.Cl [TCMDC-134116]	2000 nM	1800 nM	490 nM and 450 nM	240 nM and 210 nM	1800 nM and 1600 nM	1600 nM	1000 nM	> 20000 nM	740 nM	850 nM	340 nM and 330 nM	530 nM and 510 nM
Cl.NCC1(c2nc(-c3ccc(Cl)c(O)c3)c(-c3ccncc3)[nH]2)CCCCC1 [TCMDC-141154]	1100 nM and 900 nM	69 nM and 79 nM	> 20000 nM	> 20000 nM	9700 nM and > 20000 nM	> 20000 nM	> 20000 nM	> 20000 nM	> 20000 nM	1000 nM	5200 nM and 4300 nM	> 20000 nM
CN(C)CC(O)COc1ccc(Nc2ncc([N+](=O)[O-])c(Nc3ccccc3O)n2)cc1.O=C(O)C(F)(F)F (stereo not drawn) [TCMDC-141399]	> 20000 nM	> 20000 nM	4900 nM	260 nM and 350 nM	> 20000 nM	> 20000 nM	> 20000 nM	> 20000 nM	> 20000 nM	> 20000 nM	1900 nM	> 20000 nM
